These results are taken from ChEMBL document CHEMBL2203257 (Bioorg Med Chem Lett, 2012).

The target in data set [1] is T1, Phosphatidylinositol 4,5-bisphosphate 3-kinase catalytic subunit delta isoform (Homo sapiens, UniProt O00329).
T1 sequence (O00329 whole entry): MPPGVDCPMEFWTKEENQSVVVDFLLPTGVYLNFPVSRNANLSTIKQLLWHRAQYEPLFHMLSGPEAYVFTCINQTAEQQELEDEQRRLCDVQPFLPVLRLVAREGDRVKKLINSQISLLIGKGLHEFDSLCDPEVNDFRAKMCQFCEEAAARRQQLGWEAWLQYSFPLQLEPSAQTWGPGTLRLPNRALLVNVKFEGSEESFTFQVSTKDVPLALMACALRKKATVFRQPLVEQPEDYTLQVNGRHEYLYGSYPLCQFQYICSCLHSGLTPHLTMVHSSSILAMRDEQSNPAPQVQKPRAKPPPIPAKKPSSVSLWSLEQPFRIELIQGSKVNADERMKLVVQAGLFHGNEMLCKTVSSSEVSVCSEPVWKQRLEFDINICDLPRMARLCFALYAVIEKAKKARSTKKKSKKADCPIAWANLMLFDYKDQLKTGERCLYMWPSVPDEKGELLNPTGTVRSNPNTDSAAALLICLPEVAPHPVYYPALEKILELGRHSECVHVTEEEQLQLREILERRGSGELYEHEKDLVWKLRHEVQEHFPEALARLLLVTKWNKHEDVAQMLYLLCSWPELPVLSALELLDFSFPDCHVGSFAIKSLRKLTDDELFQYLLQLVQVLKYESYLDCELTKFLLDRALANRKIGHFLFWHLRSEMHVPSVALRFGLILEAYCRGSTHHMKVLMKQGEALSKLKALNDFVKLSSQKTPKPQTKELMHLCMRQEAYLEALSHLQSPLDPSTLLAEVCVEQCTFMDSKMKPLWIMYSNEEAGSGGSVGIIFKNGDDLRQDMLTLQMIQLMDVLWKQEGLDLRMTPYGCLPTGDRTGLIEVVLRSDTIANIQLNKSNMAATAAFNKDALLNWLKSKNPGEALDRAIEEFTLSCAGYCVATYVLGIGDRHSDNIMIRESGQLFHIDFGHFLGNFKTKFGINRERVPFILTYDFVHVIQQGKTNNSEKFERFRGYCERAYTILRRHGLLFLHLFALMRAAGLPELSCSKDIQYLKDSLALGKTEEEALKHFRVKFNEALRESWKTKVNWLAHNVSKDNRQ
Description: Inhibition of PI3Kdelta assessed as change in pIC50 by kinobeads assay.

The target of data set [2] is Phosphatidylinositol 4,5-bisphosphate 3-kinase catalytic subunit alpha isoform (Homo sapiens, UniProt P42336). Description: Inhibition of PI3Kalpha assessed as change in pIC50 by kinobeads assay.
Phosphatidylinositol 4,5-bisphosphate 3-kinase catalytic subunit alpha isoform, sequence (P42336 whole entry, canonical isoform): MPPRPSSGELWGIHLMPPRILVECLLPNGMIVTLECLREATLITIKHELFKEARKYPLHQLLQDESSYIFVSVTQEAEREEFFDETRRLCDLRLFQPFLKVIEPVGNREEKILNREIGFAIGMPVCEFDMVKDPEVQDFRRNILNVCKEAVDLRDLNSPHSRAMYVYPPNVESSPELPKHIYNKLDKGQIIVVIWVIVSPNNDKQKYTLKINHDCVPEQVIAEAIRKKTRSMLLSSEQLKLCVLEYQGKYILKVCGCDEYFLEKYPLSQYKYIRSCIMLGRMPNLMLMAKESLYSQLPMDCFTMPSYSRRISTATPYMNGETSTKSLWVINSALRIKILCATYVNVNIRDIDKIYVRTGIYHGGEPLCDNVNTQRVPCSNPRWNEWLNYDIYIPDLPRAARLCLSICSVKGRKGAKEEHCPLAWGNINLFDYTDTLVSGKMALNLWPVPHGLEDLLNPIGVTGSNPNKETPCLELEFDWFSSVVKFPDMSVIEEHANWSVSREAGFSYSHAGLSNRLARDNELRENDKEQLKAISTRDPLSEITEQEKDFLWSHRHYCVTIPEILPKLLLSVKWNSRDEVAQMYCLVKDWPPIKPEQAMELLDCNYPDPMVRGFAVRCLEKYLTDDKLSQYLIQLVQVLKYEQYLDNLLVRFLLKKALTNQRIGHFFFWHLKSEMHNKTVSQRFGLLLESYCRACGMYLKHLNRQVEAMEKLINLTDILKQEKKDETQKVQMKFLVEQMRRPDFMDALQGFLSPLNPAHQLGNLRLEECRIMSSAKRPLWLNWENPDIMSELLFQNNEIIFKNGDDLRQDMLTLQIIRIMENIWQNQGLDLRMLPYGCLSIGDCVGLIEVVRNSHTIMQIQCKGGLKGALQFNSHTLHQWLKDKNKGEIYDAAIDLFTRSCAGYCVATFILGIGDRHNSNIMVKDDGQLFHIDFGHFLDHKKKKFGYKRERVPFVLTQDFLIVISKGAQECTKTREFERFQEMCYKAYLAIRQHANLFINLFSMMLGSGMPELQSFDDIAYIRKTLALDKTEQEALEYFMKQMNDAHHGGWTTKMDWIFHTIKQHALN
The target in data set [3] is Phosphatidylinositol 4,5-bisphosphate 3-kinase catalytic subunit gamma isoform (Homo sapiens, UniProt P48736). Put plainly: Inhibition of PI3Kgamma by kinobeads assay.
Phosphatidylinositol 4,5-bisphosphate 3-kinase catalytic subunit gamma isoform, sequence (P48736 whole entry, canonical isoform): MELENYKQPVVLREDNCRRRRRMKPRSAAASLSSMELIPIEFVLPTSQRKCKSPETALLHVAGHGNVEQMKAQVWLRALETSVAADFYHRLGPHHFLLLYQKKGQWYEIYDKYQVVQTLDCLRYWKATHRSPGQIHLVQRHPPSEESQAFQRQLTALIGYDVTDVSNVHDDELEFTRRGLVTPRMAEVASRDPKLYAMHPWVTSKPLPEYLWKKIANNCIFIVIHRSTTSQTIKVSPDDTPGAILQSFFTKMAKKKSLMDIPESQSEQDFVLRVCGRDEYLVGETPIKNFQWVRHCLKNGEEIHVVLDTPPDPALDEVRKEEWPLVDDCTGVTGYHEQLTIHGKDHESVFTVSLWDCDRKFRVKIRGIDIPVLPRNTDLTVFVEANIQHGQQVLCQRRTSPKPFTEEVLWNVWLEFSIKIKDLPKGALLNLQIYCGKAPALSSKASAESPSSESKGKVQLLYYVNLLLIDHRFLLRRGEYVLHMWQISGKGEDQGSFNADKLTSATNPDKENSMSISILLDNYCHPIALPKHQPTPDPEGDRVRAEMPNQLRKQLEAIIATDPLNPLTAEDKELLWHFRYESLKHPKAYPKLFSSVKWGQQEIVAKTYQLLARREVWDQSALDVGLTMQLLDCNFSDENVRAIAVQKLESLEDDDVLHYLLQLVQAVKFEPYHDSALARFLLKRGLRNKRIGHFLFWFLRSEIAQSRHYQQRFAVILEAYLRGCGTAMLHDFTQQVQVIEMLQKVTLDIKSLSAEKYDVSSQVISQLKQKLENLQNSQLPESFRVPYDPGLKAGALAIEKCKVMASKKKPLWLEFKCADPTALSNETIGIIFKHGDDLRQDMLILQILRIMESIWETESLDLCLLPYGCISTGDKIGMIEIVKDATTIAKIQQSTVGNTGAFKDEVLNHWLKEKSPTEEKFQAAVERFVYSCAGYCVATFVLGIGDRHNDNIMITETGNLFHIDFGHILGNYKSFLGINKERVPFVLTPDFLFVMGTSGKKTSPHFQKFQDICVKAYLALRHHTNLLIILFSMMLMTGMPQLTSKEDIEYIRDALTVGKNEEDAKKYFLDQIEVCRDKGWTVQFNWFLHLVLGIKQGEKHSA
Data set [4] has as its target Phosphatidylinositol 4,5-bisphosphate 3-kinase catalytic subunit beta isoform (Homo sapiens, UniProt P42338). Put plainly: Inhibition of PI3Kbeta assessed as change in pIC50 by kinobeads assay.
For the next data set, the system named is Mus musculus. Description: Antiinflammatory activity in mouse IL-8-induced air-pouch model assessed as inhibition of granulocyte migration at 3 mg/kg, po. Also noted: scale not given: the % may be the effect or the level left.
Data set [5] deals with Hepatocyte. Description: Metabolic stability in rat hepatocytes measured per gram of tissue. It counts as ADME, cell-based.
Data set [6] relates to Hepatocyte. Put plainly: Metabolic stability in human hepatocytes measured per gram of tissue. It counts as ADME, cell-based.
For data set [7], the system named is Hepatocyte. Put plainly: Metabolic stability in mouse hepatocytes measured per gram of tissue. It counts as ADME, cell-based.
In data set [8] the target is Phosphatidylinositol 4,5-bisphosphate 3-kinase catalytic subunit delta isoform/gamma isoform (Homo sapiens, UniProt P48736+O00329). Put plainly: Inhibition of PI3Kgamma/delta by neutrophil migration assay.
The subject of a further data set is Liver microsomes. Put plainly: Volume of distribution at steady state […] at 5 mg/kg, po. It counts as ADME, organism-based. Also on record: dose 5 mg/kg, route oral.
Data set [9] is described as follows: Oral bioavailability in Wistar rat at 5 mg/kg. To be noted: in vivo.
The nature of data set [10]: Cmax in rat […] at 5 mg/kg, po. It counts as ADME, organism-based. Also noted: dose 5 mg/kg, route oral.
Data set [11] in a line: Half life in rat […] at 5 mg/kg, po. Type of data set: ADME, organism-based. Also on record: dose 5 mg/kg, route oral. (In general: Liver microsomes are a subcellular fraction often used to study metabolism.)
The nature of data set [12]: AUC in rat […] at 5 mg/kg, po. Also on record: dose 5 mg/kg, route oral. Type of data set: ADME, organism-based.

The IC50 is the concentration at which inhibition is half-maximal. For orientation: pIC50 means the IC50 on a negative log10 scale, so that one unit is a factor of ten. As usually defined, the bioavailability is the share of a dose that reaches the circulation, judged against a reference dose that is usually intravenous. Usually Cmax stands for the highest concentration seen after dosing. The half-life is the time in which the quantity being followed falls by half. Broadly, the AUC is concentration integrated over time.

Each structure is given as a SMILES string.

Phosphatidylinositol 4,5-bisphosphate 3-kinase catalytic subunit beta isoform, sequence (P42338 whole entry, canonical isoform): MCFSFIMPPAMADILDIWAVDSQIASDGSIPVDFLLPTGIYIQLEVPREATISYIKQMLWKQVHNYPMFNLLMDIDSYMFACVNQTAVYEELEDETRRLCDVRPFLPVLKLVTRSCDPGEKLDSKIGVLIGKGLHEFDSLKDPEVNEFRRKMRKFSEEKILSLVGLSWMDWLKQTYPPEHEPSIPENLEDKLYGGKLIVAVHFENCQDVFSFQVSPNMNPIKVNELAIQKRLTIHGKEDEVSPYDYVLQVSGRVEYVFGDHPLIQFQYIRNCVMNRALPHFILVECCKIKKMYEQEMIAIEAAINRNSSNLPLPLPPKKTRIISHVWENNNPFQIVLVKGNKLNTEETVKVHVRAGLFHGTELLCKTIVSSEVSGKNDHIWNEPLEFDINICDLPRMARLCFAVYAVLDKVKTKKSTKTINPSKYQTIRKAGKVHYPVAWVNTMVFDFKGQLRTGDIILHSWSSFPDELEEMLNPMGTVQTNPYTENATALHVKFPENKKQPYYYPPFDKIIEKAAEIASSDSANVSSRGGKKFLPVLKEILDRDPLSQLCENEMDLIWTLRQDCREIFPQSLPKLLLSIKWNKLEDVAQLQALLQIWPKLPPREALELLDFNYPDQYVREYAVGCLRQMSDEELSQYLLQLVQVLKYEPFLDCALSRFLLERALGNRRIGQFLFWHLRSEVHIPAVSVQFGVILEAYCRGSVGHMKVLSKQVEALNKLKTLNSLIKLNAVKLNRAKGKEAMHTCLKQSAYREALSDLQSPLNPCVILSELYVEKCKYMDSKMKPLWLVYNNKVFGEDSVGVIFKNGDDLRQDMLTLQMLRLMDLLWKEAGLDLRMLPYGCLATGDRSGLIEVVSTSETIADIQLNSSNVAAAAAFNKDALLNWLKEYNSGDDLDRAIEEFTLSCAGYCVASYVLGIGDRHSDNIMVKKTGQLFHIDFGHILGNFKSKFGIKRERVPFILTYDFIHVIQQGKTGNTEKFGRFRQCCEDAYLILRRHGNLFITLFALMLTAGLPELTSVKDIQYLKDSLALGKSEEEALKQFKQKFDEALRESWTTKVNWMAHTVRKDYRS

For `CC(C)(C)NS(=O)(=O)c1cncc(-c2cc(F)c3nc(N)nn3c2)c1`, the IC50 in data set [1] is 7.94 µM; in data set [2], greater than 10 µM; in [3] it was 0.0251 µM; in data set [4] it was 1 µM. In the data set on Mus musculus, the Activity is on record as 29%.

With `CS(=O)(=O)c1cncc(-c2ccn3nc(N)nc3c2)c1`, the IC50 in data set [3] is 0.0794 µM.

Turning to `CC(C)(C)NS(=O)(=O)c1cncc(-c2cc(F)n3nc(N)nc3c2)c1`, the figures for the CLint in the data set on Hepatocyte [5], with Hepatocyte [6] and in the data set with Hepatocyte [7] were 7.5 mL/min/g, 2.5 mL/min/g and 36.1 mL/min/g, respectively. Further, in data set [3], the 50% inhibitory concentration (IC50) is 0.0158 µM. In data set [8], this compound showed a pIC50 of 6.1.

For the compound `CCCNS(=O)(=O)c1cncc(-c2ccn3nc(N)nc3c2)c1`, the IC50 in [1] was less than 20000 µM; in [3] it was 0.0316 µM. Besides, the negative logarithm of the IC50 (pIC50) in data set [8] is recorded as 6.2.

Take `CC(C)NS(=O)(=O)c1cncc(-c2ccn3nc(N)nc3c2)c1`: the IC50 in data set [3] is 0.0251 µM. In [8], the pIC50 was 6.3.

Consider `Nc1nc2cc(-c3cncc(S(=O)(=O)NCC(F)(F)F)c3)ccn2n1`, for which the IC50 in [3] was 0.02 µM. The compound further came in with a pIC50 in data set [8] of 5.9.

On to `CC(C)(NS(=O)(=O)c1cncc(-c2ccn3nc(N)nc3c2)c1)C(F)(F)F`, for which it took 0.02 µM to reach half-maximal inhibition in [3] (IC50). Besides, the pIC50 in data set [8] was found to be 5.6.

Regarding `Nc1nc2cc(-c3cncc(S(=O)(=O)Nc4ccccc4)c3)ccn2n1`, 0.0398 µM corresponded to half-maximal inhibition in data set [3] (IC50). In data set [8], this compound returned a pIC50 of 5.

Compound `Nc1nc2cc(-c3cncc(S(=O)(=O)NCc4ccccc4)c3)ccn2n1` had an IC50 in data set [3] of 0.1 µM.

`CCN(CC)S(=O)(=O)c1cncc(-c2ccn3nc(N)nc3c2)c1` showed an IC50 in data set [3] of 0.00794 µM. Moreover, the pIC50 in [8] stood at 5.9.

As for `CC1(C)CCN1S(=O)(=O)c1cncc(-c2ccn3nc(N)nc3c2)c1`, 0.0251 µM corresponded to half-maximal inhibition in data set [3] (IC50). In [8], the pIC50 is reported as 5.7.

In data set [3], `Nc1nc2cc(-c3cncc(S(N)(=O)=O)c3)ccn2n1` had an IC50 of 0.02 µM. In addition, the pIC50 in data set [8] came out at 6.1.

For `CNS(=O)(=O)c1cncc(-c2ccn3nc(N)nc3c2)c1`, the Vdss in the data set with Liver microsomes is 2.2 L/kg. The compound further gave a concentration for half-maximal inhibition (IC50) in [3] of 0.0251 µM. Also, the bioavailability in data set [9] was determined as 56%. The highest level in [10] (Cmax) was 5 µM. The compound further had a half-life in data set [11] of 1.2 h. Also, the negative-log IC50 (pIC50) in [8] amounted to 6.3. This compound had an AUC in data set [12] of 6.7 µM·h.
